Assay results: PMC9081329, “Pharmacokinetics, Mass Balance, Excretion, and Tissue Distribution of Plasmalogen Precursor PPI-1011” (Frontiers in Cell and Developmental Biology, 2022)

Assay: Single dose tissue distribution study (QWBA, LSC of blood and plasma)
Format: in vivo, Sprague-Dawley rats
Protocol: Six male rats were administered a single oral dose of [^14C]PPI-1011 at 100 mg/kg (200 μCi/kg) and one rat was sacrificed at each of the following time points after the administration of the dose: 8, 12, 18, 24, 48, or 168 h. Terminal blood was collected by cardiac puncture directly into tubes with K2EDTA, an aliquot was stored at 4°C until LSC was performed for radioactivity, while the remaining blood was processed to plasma and stored at −20°C until LSC. Following blood collection, the carcasses were frozen in a cold bath with hexanes and dry ice for at least 8 min and then dried and stored at −70°C for at least 5 h. The carcasses were transferred to a −20°C freezer for at least 12 h before embedding.
QWBA was used to determine radioactivity concentrations in the caecum (contents and mucosa), large intestine (contents and mucosa), small intestine (contents and mucosa), stomach (contents and mucosa), brain, choroid plexus, spinal cord, bone, skin, adrenal gland, pineal body, pituitary gland, thyroid gland, liver, kidney (cortex, medulla and whole kidney), urinary bladder (contents and wall), brown fat, white fat, eye (lens, uveal tract and whole eye), epididymis, prostate gland, testis, ovary, uterus, lung, exorbital lachrymal gland, Harderian gland, pancreas, salivary gland, skeletal muscle, myocardium, cardiac blood, bone marrow, lymph node, spleen, and thymus. As well, LSC was used to determine the total radioactivity in the whole blood and plasma.
The whole-body cryosectioning technique described by ([Ullberg, 1977]) was the basis for embedding and cryosectioning the rats assigned to this study. Each frozen carcass was shaved, and then the limbs and tail were removed prior to embedding. Chilled (4°C) 3% CMC (low viscosity) was utilized to provide a firm support of reinforced ice around each rat and for a secure attachment to the microtome stage. Upon thorough freezing of the embedding medium surrounding each rat, the frozen CMC block was removed from the freezing bath and four 3/8 inch holes were drilled into the block. One cryosection quality control standard (CQCS) was prepared with a known amount of radioactivity and at least 1 ml aliquots were added to each of the four drilled holes. CQCS data were utilized to evaluate the overall performance of the QWBA assay.
Each frozen rat was sagittally trimmed (50–100 μm) at −20°C until exposure of a few target tissues employing a Leica Cryomacrocut heavy-duty microtome (Leica Microsystems Inc.,). Disposable stainless steel Feather type H45L knives (Feather Safety Razor Co., Ltd.) were utilized for trimming and sectioning each frozen rat. Several thinner sections (50 μm) were discarded prior to obtaining multiple 50 μm sections at various cryosectioning levels for QWBA analysis. Upon the collection of at least 60 target tissues in multiple cryosectioning levels, the cryosections were kept in the Cryomacrocut cryochamber for a minimum of 18 h for dehydration depending upon the number of cryosections within the cryochamber. After dehydration was complete, the cryosections were transferred to ambient temperature for processing. Mounted whole-body cryosections and a set of 15 standards were sandwiched between a standard phosphor screen and an exposure cassette. All cryosections were exposed to the phosphor screen for 4-days in a cabinet protected with lead prior to scanning using a Typhoon PhosphorImager (Cytiva). MCID™ Analysis software (InterFocus Ltd.) was utilized to generate a calibration curve of the STD nominal concentrations (nCi/g) versus PhosphorImager response (counts/μm^2 minus background) by weighted (1/x) linear regression analysis ([Potchoiba et al., 1995]; [Potchoiba et al., 1998]). The linear regression curve was then utilized to determine the concentration (nCi/g) of total radioactivity in whole-body tissues and blood. Radioactivity concentrations were expressed as μg Eq/g based on the specific activity of the compound in the final dose formulations. […]

[1] = 12 h post single oral 100 mg/kg

CC/C=C\C/C=C\C/C=C\C/C=C\C/C=C\C/C=C\CCC(=O)O[C@H](CO[14CH2]CCCCCCCCCCCCCCC)COC(=O)CCCCC1CCSS1 (stereo partly shown) [[^14C]PPI-1011]
Blood:plasma concentration ratio (168 HPD, single dose): 2.96
Radioactivity concentration, Adipose - Brown (8 h post single oral 100 mg/kg): 171 μg equivalents/g
Radioactivity concentration, Adipose - Brown (Vessel Wall) (8 h post single oral 100 mg/kg): 301 μg equivalents/g
Radioactivity concentration, Adipose - Subcutaneous (8 h post single oral 100 mg/kg): 74.0 μg equivalents/g
Radioactivity concentration, Adipose - Visceral (8 h post single oral 100 mg/kg): 83.1 μg equivalents/g
Radioactivity concentration, Adrenal Gland (8 h post single oral 100 mg/kg): 195 μg equivalents/g
Radioactivity concentration, Bladder Wall (8 h post single oral 100 mg/kg): 86.0 μg equivalents/g
Radioactivity concentration, Blood - QWBA (8 h post single oral 100 mg/kg): 35.4 μg equivalents/g
Radioactivity concentration, Bone Marrow (8 h post single oral 100 mg/kg): 23.5 μg equivalents/g
Radioactivity concentration, Bone Surface (8 h post single oral 100 mg/kg): 2.30 μg equivalents/g
Radioactivity concentration, Cerebellum (8 h post single oral 100 mg/kg): 2.70 μg equivalents/g
Radioactivity concentration, Cerebrum (8 h post single oral 100 mg/kg): 2.39 μg equivalents/g
Radioactivity concentration, Choroid Plexus (8 h post single oral 100 mg/kg): 14.9 μg equivalents/g
Radioactivity concentration, Colliculus (8 h post single oral 100 mg/kg): 3.50 μg equivalents/g
Radioactivity concentration, Diaphragm (8 h post single oral 100 mg/kg): 55.6 μg equivalents/g
Radioactivity concentration, Epididymis (8 h post single oral 100 mg/kg): 39.8 μg equivalents/g
Radioactivity concentration, Esophagus (8 h post single oral 100 mg/kg): 17.4 μg equivalents/g
Radioactivity concentration, Exorbital Lacrimal Gland (8 h post single oral 100 mg/kg): 28.7 μg equivalents/g
Radioactivity concentration, Gastric Mucosa (8 h post single oral 100 mg/kg): 91.2 μg equivalents/g
Radioactivity concentration, Harderian Gland (8 h post single oral 100 mg/kg): 14.4 μg equivalents/g
Radioactivity concentration, Intra-Orbital Lacrimal Gland (8 h post single oral 100 mg/kg): 10.4 μg equivalents/g
Radioactivity concentration, Kidney (8 h post single oral 100 mg/kg): 42.9 μg equivalents/g
Radioactivity concentration, Large Intestines (8 h post single oral 100 mg/kg): 12.5 μg equivalents/g
Radioactivity concentration, Liver (8 h post single oral 100 mg/kg): 313 μg equivalents/g
Radioactivity concentration, Lung (8 h post single oral 100 mg/kg): 74.0 μg equivalents/g
Radioactivity concentration, Lymph Node (8 h post single oral 100 mg/kg): 22.7 μg equivalents/g
Radioactivity concentration, Medulla Oblongata (8 h post single oral 100 mg/kg): 2.40 μg equivalents/g
Radioactivity concentration, Muscle (8 h post single oral 100 mg/kg): 10.3 μg equivalents/g
Radioactivity concentration, Myocardium (8 h post single oral 100 mg/kg): 92.0 μg equivalents/g
Radioactivity concentration, Nasal Turbinates (8 h post single oral 100 mg/kg): 16.0 μg equivalents/g
Radioactivity concentration, Ocular - Uveal Tract (8 h post single oral 100 mg/kg): 6.97 μg equivalents/g
Radioactivity concentration, Ocular - Whole Eye (8 h post single oral 100 mg/kg): 1.83 μg equivalents/g
Radioactivity concentration, Olfactory Bulb (8 h post single oral 100 mg/kg): 2.16 μg equivalents/g
Radioactivity concentration, Pancreas (8 h post single oral 100 mg/kg): 66.3 μg equivalents/g
Radioactivity concentration, Parotid Gland (8 h post single oral 100 mg/kg): 39.1 μg equivalents/g
Radioactivity concentration, Pineal Gland (8 h post single oral 100 mg/kg): 11.9 μg equivalents/g
Radioactivity concentration, Pituitary Gland (8 h post single oral 100 mg/kg): 21.2 μg equivalents/g
Radioactivity concentration, Preputial Gland (8 h post single oral 100 mg/kg): 33.6 μg equivalents/g
Radioactivity concentration, Prostate (8 h post single oral 100 mg/kg): 49.6 μg equivalents/g
Radioactivity concentration, Renal Cortex (8 h post single oral 100 mg/kg): 41.4 μg equivalents/g
Radioactivity concentration, Renal Medulla (8 h post single oral 100 mg/kg): 51.0 μg equivalents/g
Radioactivity concentration, Salivary Gland (8 h post single oral 100 mg/kg): 53.3 μg equivalents/g
Radioactivity concentration, Seminal Vesicles (8 h post single oral 100 mg/kg): 12.8 μg equivalents/g
Radioactivity concentration, Skin - Non-Pigmented (8 h post single oral 100 mg/kg): 15.0 μg equivalents/g
Radioactivity concentration, Small Intestines (8 h post single oral 100 mg/kg): 609 μg equivalents/g
Radioactivity concentration, Spinal Cord (8 h post single oral 100 mg/kg): 2.71 μg equivalents/g
Radioactivity concentration, Spleen (8 h post single oral 100 mg/kg): 105 μg equivalents/g
Radioactivity concentration, Stomach (8 h post single oral 100 mg/kg): 22.6 μg equivalents/g
Radioactivity concentration, Testis (8 h post single oral 100 mg/kg): 2.65 μg equivalents/g
Radioactivity concentration, Thalamus (8 h post single oral 100 mg/kg): 2.27 μg equivalents/g
Radioactivity concentration, Thymus (8 h post single oral 100 mg/kg): 10.7 μg equivalents/g
Radioactivity concentration, Thyroid (8 h post single oral 100 mg/kg): 49.9 μg equivalents/g
Radioactivity concentration, Whole Brain (8 h post single oral 100 mg/kg): 2.60 μg equivalents/g
Radioactivity concentration, Adipose - Brown [1]: 426 μg equivalents/g
Radioactivity concentration, Adipose - Brown (Vessel Wall) [1]: 383 μg equivalents/g
Radioactivity concentration, Adipose - Subcutaneous [1]: 242 μg equivalents/g
Radioactivity concentration, Adipose - Visceral [1]: 170 μg equivalents/g
Radioactivity concentration, Adrenal Gland [1]: 367 μg equivalents/g
Radioactivity concentration, Bladder Wall [1]: 19.3 μg equivalents/g
Radioactivity concentration, Blood - QWBA [1]: 16.4 μg equivalents/g
Radioactivity concentration, Bone Marrow [1]: 23.0 μg equivalents/g
Radioactivity concentration, Bone Surface [1]: 1.15 μg equivalents/g
Radioactivity concentration, Cecum [1]: 450 μg equivalents/g
Radioactivity concentration, Cerebellum [1]: 2.69 μg equivalents/g
Radioactivity concentration, Cerebrum [1]: 2.22 μg equivalents/g
Radioactivity concentration, Choroid Plexus [1]: 17.1 μg equivalents/g
Radioactivity concentration, Colliculus [1]: 3.03 μg equivalents/g
Radioactivity concentration, Diaphragm [1]: 59.9 μg equivalents/g
Radioactivity concentration, Epididymis [1]: 70.9 μg equivalents/g
Radioactivity concentration, Esophagus [1]: 16.9 μg equivalents/g
Radioactivity concentration, Exorbital Lacrimal Gland [1]: 34.5 μg equivalents/g
Radioactivity concentration, Gastric Mucosa [1]: 67.8 μg equivalents/g
Radioactivity concentration, Harderian Gland [1]: 10.8 μg equivalents/g
Radioactivity concentration, Intra-Orbital Lacrimal Gland [1]: 8.89 μg equivalents/g
Radioactivity concentration, Kidney [1]: 45.3 μg equivalents/g
Radioactivity concentration, Large Intestines [1]: 209 μg equivalents/g
Radioactivity concentration, Liver [1]: 269 μg equivalents/g
Radioactivity concentration, Lung [1]: 51.9 μg equivalents/g
Radioactivity concentration, Lymph Node [1]: 22.6 μg equivalents/g
Radioactivity concentration, Medulla Oblongata [1]: 2.44 μg equivalents/g
Radioactivity concentration, Muscle [1]: 12.6 μg equivalents/g
Radioactivity concentration, Myocardium [1]: 72.6 μg equivalents/g
Radioactivity concentration, Nasal Turbinates [1]: 10.6 μg equivalents/g
Radioactivity concentration, Ocular - Uveal Tract [1]: 6.57 μg equivalents/g
Radioactivity concentration, Ocular - Whole Eye [1]: 2.03 μg equivalents/g
